Columns and labels:
[1] = system: PKA; experiment: PKA activity ELISA, brown adipocytes treated overnight; assay type: cell-based, mouse; settings: immortalized brown adipocytes, 10 μM
Protocol: PKA kinase activity was measured with an ELISA that utilized a synthetic peptide as substrate for PKA and a polyclonal antibody that recognizes the phosphorylated form of the substrate (ab139435, Abcam). PKA activity was measured in lysates from cultured brown adipocytes, mouse BAT, or liver. Cells and tissues were lysed in 20 mM MOPS, 5 mM EGTA, 2 mM EDTA, and 0.1% Triton X-100 supplemented with protease and phosphatase inhibitor as described above. Protein concentration was determined by Bradford assay and 10 μg of cells, 0.25 μg of BAT extract, or 0.5 μg of liver extract were assessed for PKA activation according to the manufacturer's instruction, with minor changes. Briefly, vehicle or Z160 was incubated with brown adipocyte cells overnight or with protein lysates for 30 min, followed by one wash before the primary antibody, 60 min incubation with the primary antibody, 30 min incubation with the secondary antibody, and by 10 min washing. Absorbance was measured after the substrate was added for 20-60 min, depending the intensity of the signal.

[2] = biological target: T1, AKAP1 (Mus musculus, UniProt O08715); experiment: Drug Affinity Responsive Target Stability (DARTS) in BAT or brown adipocyte extracts, AKAP1; assay type: binding; settings: 1 h; for effect on AKAP1 (pronase susceptibility): mouse brown adipocyte extracts, 20 μM (CL316,243 20 nM)
T1 construct: from tissue; host or cells: mouse brown adipose tissue (BAT) lysate; also mouse brown adipocyte extracts
T1 sequence (O08715 30-857): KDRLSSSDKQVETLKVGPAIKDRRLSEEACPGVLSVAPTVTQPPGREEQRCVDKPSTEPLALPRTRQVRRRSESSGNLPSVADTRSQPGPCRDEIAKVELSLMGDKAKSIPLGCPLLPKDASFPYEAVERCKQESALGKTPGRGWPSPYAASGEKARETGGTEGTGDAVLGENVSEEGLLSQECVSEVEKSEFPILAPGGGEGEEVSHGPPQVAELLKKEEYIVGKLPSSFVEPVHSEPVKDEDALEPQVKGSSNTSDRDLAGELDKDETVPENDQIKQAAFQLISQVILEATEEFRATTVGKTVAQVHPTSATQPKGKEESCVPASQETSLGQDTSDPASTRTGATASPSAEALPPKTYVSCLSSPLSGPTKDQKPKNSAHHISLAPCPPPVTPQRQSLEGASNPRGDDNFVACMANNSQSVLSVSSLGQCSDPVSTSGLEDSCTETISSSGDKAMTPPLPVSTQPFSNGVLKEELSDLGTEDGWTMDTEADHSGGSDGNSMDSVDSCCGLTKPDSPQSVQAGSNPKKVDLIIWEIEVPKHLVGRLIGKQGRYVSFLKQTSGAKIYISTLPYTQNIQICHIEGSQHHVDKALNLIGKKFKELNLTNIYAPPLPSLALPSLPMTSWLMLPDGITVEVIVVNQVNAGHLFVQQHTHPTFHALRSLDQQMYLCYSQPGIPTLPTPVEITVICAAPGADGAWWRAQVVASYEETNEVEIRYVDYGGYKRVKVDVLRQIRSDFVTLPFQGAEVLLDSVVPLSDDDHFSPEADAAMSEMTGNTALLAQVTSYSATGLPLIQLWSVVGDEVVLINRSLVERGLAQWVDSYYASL
Protocol: […] assays were performed according to known methods. Briefly, BAT or cells within a 10 cm dish were lysed with 600 μl M-PER buffer containing protease and phosphatase inhibitors. Debris was pelleted by centrifugation at 18,000 g for 10 min at 4° C., and the lysates were harvested and supplemented with TNC buffer (50 mM Tris-HCl, 50 mM NaCl, 10 mM CaCl2). The lysates were split into two tubes and treated with either vehicle or 20 μM Z160 for 1 h at room temperature. For experiment with BAT, 100 μg of lysate was incubated with different Z160 concentrations. Different concentrations of pronase (from 1:100 to 1:10,000 dilution from a 1.25 mg/ml pronase stock) were incubated with the samples for 30 min at room temperature and the reaction was stopped with SDS loading buffer followed immediately by heating at 70° C. for 10 min. Protein lysates were separated by SDS-PAGE and transferred to a nitrocellulose membrane. After blocking in 5% milk, 0.1% Tween-20 in Tris-buffered saline (TBS), primary antibody was incubated overnight at 4° C. in 5% bovine serum albumin and 0.1% Tween-20 in TBS. Primary antibodies against AKAP1 (5203, Cell Signaling), AKAP13 (39715, One World Lab), GAPDH (GTX100118, Genetex), OPA1 (39557, One World Lab), PKA C-α (4782, Cell Signaling), PKA RII-β (ab75993, Abcam), were used at 1:2000. A goat anti-rabbit secondary antibody (sc-2030, Santa Cruz Biotechnology, Inc) was used at a 1:10,000 dilution for 1 h at room temperature in 5% milk and 0.1% Tween-20 in TBS.
The PKA tetramer consists of two catalytic and two regulatory subunits. In the mouse, these are catalytic subunits C-α and C-β, and regulatory subunits RI and RII, each with α and β isoforms (RI-α, RI-β, RII-α, RII-β). PKA is also bound to a family of anchoring proteins, A-kinase anchoring proteins (AKAPs), which allow the compartmentalization of cAMP signaling. To investigate whether Z160 binds PKA complex proteins, two techniques were applied both of which rely on ligand-induced alterations in protein stability: Cellular Thermal Shift Assay (CETSA) and Drug Affinity Responsive Target Stability (DARTS). CETSA is based on the principle that ligand binding will change the temperature at which a protein starts to unfold and aggregate, while DARTS relies on the protection of a protein from proteolysis upon specific binding to a small molecule.
To provide further evidence for an interaction between Z160 and AKAP1, DARTS assays were employed. Lysates from brown fat were treated with different Z160 concentrations for 1 h followed by pronase digestion and immunoblotting. […] The effect of Z160 on AKAP1 was confirmed using mouse brown adipocyte extracts (FIG. 15A).

Compound | PKA activity [1] | effect on AKAP1 (pronase susceptibility) [2] | pronase susceptibility of AKAP1 ([2]; brown fat lysates, pronase 1:4000)
O=C(CSc1nc2ccccc2c(=O)[nH]1)Nc1ccc2c(c1)OCCO2 [AST070, N-(2,3-dihydro-1,4-benzodioxin-6-yl)-2-[(4-oxo-3,4-dihydroquinazolin-2-yl)sulfanyl]acetamide] | significantly increased | effect of AST070 or Z160 on AKAP1 | 
COc1ccc(NC(=O)CSc2nc3ccccc3c(=O)[nH]2)c(OC)c1 [Z160] | significantly increased | confirmed | altered pronase susceptibility
